Experimental data taken from ChEMBL document CHEMBL5291721, “A preclinical secondary pharmacology resource illuminates target-adverse drug reaction associations of marketed drugs” (Nat Commun, 2023).

What was measured:
B1 bradykinin receptor = biological target: T1, B1 bradykinin receptor (Homo sapiens, UniProt P46663)
T1 sequence (P46663 whole entry): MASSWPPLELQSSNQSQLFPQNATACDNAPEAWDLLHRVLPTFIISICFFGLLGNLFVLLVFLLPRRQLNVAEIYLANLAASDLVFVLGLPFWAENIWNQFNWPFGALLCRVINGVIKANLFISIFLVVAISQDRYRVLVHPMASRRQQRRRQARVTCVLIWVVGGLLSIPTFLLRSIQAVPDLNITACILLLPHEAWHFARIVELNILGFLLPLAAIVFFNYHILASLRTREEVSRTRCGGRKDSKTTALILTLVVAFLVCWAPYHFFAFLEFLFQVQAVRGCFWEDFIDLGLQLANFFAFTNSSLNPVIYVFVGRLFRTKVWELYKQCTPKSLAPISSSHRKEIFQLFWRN

[1] = biological target: Voltage-dependent N-type calcium channel subunit alpha-1B (Rattus norvegicus, UniProt Q02294); assay type: functional
Voltage-dependent N-type calcium channel subunit alpha-1B, sequence (Q02294 whole entry): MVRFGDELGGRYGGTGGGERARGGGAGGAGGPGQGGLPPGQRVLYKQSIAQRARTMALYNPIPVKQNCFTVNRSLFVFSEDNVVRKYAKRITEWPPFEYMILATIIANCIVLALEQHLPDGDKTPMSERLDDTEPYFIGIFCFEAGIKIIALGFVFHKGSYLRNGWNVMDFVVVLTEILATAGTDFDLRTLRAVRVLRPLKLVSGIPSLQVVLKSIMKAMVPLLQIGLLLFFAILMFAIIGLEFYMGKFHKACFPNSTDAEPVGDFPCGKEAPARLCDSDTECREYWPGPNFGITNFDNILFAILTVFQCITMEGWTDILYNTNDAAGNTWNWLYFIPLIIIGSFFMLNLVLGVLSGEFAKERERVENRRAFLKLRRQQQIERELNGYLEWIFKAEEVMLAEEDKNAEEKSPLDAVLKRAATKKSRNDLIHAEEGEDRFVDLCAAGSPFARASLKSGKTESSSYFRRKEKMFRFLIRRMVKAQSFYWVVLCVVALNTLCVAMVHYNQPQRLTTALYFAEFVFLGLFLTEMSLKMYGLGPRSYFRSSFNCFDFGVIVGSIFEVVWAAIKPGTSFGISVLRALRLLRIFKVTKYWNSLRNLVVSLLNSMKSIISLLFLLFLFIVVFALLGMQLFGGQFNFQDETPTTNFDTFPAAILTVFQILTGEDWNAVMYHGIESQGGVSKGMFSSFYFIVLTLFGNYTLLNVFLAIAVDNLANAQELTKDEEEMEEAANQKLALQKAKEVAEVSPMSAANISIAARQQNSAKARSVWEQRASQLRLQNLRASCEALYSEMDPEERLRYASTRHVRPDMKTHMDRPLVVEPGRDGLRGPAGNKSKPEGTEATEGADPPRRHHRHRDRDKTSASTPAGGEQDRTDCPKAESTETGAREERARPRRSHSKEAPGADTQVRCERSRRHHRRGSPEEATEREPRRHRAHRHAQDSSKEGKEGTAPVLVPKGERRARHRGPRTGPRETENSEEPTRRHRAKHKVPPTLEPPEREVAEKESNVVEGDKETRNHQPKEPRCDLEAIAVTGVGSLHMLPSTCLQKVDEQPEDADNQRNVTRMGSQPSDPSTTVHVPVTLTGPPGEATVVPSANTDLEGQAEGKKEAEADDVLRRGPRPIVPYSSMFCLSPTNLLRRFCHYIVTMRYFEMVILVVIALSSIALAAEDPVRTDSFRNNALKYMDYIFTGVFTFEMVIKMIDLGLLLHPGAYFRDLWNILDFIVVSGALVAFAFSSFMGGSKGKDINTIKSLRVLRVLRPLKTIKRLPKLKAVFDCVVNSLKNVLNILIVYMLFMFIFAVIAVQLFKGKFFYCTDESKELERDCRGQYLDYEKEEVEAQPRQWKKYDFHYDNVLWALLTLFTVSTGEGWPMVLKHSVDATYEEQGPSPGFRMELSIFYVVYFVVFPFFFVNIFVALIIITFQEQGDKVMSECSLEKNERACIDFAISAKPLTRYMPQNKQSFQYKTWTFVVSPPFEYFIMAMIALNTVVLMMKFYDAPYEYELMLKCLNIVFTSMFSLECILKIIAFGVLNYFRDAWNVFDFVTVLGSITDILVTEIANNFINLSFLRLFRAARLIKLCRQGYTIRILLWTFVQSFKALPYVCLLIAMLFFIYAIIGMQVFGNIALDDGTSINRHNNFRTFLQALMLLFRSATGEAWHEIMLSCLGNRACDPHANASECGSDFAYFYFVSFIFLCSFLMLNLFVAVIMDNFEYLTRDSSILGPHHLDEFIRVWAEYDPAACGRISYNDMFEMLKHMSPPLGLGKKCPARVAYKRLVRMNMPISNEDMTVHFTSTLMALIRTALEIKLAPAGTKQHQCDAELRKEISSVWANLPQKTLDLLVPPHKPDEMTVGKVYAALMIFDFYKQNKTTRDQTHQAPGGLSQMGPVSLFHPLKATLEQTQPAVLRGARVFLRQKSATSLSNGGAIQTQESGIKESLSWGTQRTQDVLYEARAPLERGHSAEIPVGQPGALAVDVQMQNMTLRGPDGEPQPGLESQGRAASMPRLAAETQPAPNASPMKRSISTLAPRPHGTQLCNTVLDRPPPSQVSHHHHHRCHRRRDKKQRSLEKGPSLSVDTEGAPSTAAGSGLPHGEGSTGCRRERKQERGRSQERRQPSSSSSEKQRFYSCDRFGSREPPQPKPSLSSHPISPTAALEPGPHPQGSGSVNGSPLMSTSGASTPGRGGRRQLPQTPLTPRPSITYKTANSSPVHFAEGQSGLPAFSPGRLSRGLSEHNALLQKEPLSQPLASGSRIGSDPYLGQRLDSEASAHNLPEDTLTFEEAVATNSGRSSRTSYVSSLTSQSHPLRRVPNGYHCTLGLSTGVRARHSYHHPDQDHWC

[2] = biological target: T2, Gastric inhibitory polypeptide receptor (Homo sapiens, UniProt P48546)
T2 sequence (P48546 whole entry): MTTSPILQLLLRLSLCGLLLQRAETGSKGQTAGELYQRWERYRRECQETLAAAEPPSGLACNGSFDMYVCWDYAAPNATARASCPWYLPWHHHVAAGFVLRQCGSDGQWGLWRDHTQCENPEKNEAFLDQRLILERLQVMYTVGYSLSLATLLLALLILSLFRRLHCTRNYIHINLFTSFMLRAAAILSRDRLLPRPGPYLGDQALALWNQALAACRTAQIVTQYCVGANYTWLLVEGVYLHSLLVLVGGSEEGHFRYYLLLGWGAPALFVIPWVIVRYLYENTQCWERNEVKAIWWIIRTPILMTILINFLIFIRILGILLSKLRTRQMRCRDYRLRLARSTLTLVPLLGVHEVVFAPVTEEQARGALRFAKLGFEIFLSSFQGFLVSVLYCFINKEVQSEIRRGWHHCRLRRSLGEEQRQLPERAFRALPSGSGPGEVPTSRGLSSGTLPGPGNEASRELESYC

[3] = biological target: Gamma-aminobutyric acid receptor subunit alpha-1/alpha-2/beta-2/gamma-2 (Homo sapiens, UniProt P14867+P18507+P47869+P47870); assay type: functional, cell-based
Histamine H1 receptor = Histamine H1 receptor (Homo sapiens, UniProt P35367); assay type: functional, cell-based
Histamine H1 receptor, sequence (P35367 whole entry): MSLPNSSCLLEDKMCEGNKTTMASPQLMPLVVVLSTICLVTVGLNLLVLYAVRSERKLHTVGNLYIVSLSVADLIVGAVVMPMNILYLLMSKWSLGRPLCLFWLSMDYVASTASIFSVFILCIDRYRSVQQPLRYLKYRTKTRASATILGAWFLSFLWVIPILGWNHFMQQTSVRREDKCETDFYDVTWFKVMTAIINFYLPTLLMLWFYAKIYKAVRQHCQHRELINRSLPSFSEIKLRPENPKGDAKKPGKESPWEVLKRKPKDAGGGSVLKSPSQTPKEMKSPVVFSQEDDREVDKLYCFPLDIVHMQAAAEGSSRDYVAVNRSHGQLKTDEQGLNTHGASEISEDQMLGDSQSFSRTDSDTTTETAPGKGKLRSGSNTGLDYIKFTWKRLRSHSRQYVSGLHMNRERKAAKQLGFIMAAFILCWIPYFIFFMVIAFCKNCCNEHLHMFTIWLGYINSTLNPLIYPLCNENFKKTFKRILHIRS

[4] = biological target: T3, 5-hydroxytryptamine receptor 2B (Homo sapiens, UniProt P41595)
T3 sequence (P41595 whole entry): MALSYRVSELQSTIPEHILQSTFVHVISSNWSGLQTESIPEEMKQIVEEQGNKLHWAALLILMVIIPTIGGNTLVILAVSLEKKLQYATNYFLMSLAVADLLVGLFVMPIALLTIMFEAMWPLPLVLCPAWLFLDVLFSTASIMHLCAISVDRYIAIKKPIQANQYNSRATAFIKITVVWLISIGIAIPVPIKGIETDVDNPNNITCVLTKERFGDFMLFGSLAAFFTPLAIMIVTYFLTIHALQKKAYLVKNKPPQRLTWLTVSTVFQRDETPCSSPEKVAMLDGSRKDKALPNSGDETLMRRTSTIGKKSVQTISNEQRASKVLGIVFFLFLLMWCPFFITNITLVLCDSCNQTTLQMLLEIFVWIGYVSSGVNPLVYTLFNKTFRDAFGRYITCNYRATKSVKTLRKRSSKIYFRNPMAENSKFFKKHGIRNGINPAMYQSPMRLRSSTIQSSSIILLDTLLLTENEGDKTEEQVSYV

Histamine H3 receptor = Histamine H3 receptor (Homo sapiens, UniProt Q9Y5N1)
Histamine H3 receptor, sequence (Q9Y5N1 whole entry): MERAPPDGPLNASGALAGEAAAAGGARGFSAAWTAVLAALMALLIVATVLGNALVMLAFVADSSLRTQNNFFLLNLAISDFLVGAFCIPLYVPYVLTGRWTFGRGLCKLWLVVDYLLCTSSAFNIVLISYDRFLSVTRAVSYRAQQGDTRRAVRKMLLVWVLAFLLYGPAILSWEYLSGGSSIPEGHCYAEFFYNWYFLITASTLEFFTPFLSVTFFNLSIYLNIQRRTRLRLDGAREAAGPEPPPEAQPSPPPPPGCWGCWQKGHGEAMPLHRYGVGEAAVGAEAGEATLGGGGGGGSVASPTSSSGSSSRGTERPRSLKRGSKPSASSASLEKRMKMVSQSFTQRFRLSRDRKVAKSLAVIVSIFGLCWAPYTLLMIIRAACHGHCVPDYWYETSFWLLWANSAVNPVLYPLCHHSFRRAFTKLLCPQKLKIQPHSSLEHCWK

[5] = biological target: T3, 5-hydroxytryptamine receptor 2B; assay type: functional, cell-based
[6] = biological target: Vascular endothelial growth factor receptor 2 (Homo sapiens, UniProt P35968); assay type: functional
Vascular endothelial growth factor receptor 2, sequence (P35968 whole entry): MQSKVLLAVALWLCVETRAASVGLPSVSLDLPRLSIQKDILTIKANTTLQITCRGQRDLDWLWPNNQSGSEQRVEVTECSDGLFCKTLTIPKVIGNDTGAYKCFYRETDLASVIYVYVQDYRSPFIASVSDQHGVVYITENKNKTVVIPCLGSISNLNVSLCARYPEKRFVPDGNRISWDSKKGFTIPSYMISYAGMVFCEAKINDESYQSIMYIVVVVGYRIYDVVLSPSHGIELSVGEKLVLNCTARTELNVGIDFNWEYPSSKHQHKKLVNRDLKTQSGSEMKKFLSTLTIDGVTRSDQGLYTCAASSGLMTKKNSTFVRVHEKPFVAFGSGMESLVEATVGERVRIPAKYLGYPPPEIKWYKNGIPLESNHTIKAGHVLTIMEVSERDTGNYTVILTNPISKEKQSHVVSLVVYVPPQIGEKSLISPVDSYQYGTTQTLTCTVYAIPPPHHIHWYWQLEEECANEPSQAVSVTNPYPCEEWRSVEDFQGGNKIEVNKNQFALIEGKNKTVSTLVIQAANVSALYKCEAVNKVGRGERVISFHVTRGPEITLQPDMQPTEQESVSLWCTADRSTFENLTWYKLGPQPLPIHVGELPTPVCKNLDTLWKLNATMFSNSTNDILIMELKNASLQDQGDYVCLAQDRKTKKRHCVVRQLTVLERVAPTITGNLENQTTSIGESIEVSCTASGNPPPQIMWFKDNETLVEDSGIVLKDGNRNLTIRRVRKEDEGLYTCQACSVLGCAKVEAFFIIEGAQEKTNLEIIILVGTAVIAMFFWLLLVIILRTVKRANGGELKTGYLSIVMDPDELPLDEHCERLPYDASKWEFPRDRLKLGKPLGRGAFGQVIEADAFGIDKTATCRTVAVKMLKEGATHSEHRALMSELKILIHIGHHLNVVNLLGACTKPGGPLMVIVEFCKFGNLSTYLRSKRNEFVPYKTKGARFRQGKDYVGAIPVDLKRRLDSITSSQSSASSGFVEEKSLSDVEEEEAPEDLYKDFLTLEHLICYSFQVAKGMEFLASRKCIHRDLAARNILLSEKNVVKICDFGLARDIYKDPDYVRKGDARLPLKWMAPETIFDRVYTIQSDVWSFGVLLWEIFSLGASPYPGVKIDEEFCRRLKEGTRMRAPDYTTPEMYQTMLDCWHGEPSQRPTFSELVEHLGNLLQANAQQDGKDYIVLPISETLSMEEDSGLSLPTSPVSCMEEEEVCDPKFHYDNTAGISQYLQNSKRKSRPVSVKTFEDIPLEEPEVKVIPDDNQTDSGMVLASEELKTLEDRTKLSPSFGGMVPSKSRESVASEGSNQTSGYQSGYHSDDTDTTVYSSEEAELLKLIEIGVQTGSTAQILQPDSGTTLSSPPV

Progesterone receptor = biological target: T4, Progesterone receptor (Homo sapiens, UniProt P06401)
T4 sequence (P06401 whole entry): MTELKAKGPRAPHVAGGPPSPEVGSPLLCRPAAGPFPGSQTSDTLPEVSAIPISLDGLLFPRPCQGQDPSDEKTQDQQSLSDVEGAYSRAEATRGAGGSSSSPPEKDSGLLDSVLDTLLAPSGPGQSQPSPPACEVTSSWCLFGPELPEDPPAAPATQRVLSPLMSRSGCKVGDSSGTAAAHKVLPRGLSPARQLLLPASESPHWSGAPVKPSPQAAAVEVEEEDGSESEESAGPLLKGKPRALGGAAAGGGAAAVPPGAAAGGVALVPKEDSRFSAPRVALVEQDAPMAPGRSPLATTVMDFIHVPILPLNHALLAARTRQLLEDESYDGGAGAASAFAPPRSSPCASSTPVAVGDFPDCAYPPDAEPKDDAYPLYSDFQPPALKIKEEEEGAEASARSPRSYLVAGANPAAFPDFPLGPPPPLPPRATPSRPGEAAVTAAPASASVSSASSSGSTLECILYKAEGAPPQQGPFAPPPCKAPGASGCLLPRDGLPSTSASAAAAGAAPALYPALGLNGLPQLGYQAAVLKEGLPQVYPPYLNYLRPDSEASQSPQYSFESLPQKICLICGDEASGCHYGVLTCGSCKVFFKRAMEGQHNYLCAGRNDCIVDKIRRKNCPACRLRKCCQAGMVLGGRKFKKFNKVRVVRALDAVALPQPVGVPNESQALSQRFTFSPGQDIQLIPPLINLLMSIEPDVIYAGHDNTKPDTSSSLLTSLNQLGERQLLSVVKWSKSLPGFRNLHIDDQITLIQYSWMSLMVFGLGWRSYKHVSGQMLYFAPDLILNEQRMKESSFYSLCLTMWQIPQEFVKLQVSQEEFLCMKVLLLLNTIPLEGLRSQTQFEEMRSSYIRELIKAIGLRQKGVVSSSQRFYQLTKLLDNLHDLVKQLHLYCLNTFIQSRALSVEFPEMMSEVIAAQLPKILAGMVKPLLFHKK

Thromboxane A2 receptor = biological target: T5, Thromboxane A2 receptor (Homo sapiens, UniProt P21731); assay type: functional, cell-based
T5 sequence (P21731 whole entry): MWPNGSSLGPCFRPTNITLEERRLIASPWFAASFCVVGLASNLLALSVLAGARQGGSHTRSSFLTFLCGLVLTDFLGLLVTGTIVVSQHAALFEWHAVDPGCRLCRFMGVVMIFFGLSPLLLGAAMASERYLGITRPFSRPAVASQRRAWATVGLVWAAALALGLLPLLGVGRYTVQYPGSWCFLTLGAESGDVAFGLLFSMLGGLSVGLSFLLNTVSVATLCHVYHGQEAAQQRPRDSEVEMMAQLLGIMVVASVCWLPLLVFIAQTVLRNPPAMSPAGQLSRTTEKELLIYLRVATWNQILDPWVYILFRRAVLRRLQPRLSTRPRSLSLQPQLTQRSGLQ
Further: assay procedure not described here.

## CC(=O)OCC(=O)[C@@]1(O)[C@H](C)C[C@H]2[C@@H]3CCC4=CC(=O)C=C[C@]4(C)[C@@]3(F)[C@@H](O)C[C@@]21C [DEXAMETHASONE ACETATE]
B1 bradykinin receptor
  AC50: > 30 µM
[1]
  AC50: > 10 µM
[2]
  AC50: > 30 µM

## CCN1CCCC1CNC(=O)c1cc(S(=O)(=O)CC)c(N)cc1OC (configuration not stated) [AMISULPRIDE]
[3]
  AC50: > 30 µM
Histamine H1 receptor
  AC50: > 30 µM

## Cn1cnc2c(F)c(Nc3ccc(Br)cc3Cl)c(C(=O)NOCCO)cc21 [SELUMETINIB]
[4]
  AC50: > 10 µM

## Cn1c(=O)cc(N2CCC[C@@H](N)C2)n(Cc2ccccc2C#N)c1=O [ALOGLIPTIN]
B1 bradykinin receptor
  AC50: > 30 µM
[1]
  AC50: > 10 µM
[2]
  AC50: > 30 µM
[4]
  AC50: > 10 µM

## Oc1ccc2c(c1)[C@@]13CCCC[C@@]1(O)[C@@H](C2)N(CC1CCC1)CC3 [BUTORPHANOL]
[3]
  AC50: > 30 µM

## OCc1cc(C(O)CNCCCCCCOCCCCc2ccccc2)ccc1O (configuration not stated) [SALMETEROL]
Histamine H1 receptor
  AC50: > 30 µM

## Nc1c2ccccc2nc2ccccc12 [AMINACRINE]
Histamine H3 receptor
  AC50: > 30 µM
[5]
  AC50: > 30 µM
[6]
  AC50: > 30 µM
Progesterone receptor
  AC50: > 30 µM
Thromboxane A2 receptor
  AC50: > 30 µM

## O=C(O)CCCCC1CCSS1 (stereo not drawn) [LIPOIC ACID, ALPHA]
Histamine H3 receptor
  AC50: > 30 µM
[5]
  AC50: > 30 µM
[6]
  AC50: > 30 µM
Progesterone receptor
  AC50: > 30 µM
Thromboxane A2 receptor
  AC50: > 30 µM
